# Structures can show the parent of a compound that is named as a salt.
# How the values were obtained:
# PDE3 (cGMP-inhibited) = biological target: T1, PDE3 (cGMP-inhibited) (Homo sapiens, UniProt Q14432); assay: Inhibition of PDE3 activity, Method A (homogenates of human platelets); format: biochemical; conditions: read-out: PDE3 Inhibition [measured as −logIC50 (mol/l)] (converted)
# T1 construct: investigated in homogenates of human platelets; from tissue; host or cells: homogenates of human platelets
# Procedure: The PDE activity was determined according to Thompson et al. (Adv Cycl Nucl Res 10: 69-92, 1979) with some modifications (Bauer and Schwabe, Naunyn-Schmiedeberg's Arch Pharmacol 311: 193-198, 1980). The test samples contained 20 mM Tris (pH 7.4), 5 mM MgCl2, 0.5 μM cAMP or cGMP, [^3H]cAMP or [^3H]cGMP (about 30 000 cpm/sample), the PDE isoenzyme-specific additives described in greater detail below, the indicated concentrations of inhibitor and an aliquot of the enzyme solution in a total sample volume of 200 μl. Dilution series of the compounds according to the invention were prepared in DMSO and further diluted in the samples [1:100 (v/v)], to give the desired end concentration of the inhibitors at a DMSO concentration of 1% (v/v), which for its part has only a minute effect on PDE activity.
# After preincubation at 37° C. for 5 minutes, the reaction was started by addition of the substrate (cAMP or cGMP). The samples were incubated at 37° C. for a further 15 min. The reaction was terminated by addition of 50 μl 0.2 N HCl. After cooling on ice for 10 minutes and addition of 25 μg 5′-nucleotidase (snake venom from Crotalus atrox), the mixture was again incubated at 37° C. for 10 mih and the samples were then applied to QAE Sephadex A-25 columns (sample volume 1 ml). The columns were eluted with 2 ml of 30 mM ammonium formate (pH 6.0). The radioactivity of the eluate was measured and corrected by the corresponding blank values (measured in the presence of denatured protein); the blank values were less than 5% of the total radioactivity. In no case did the proportion of hydrolyzed nucleotide exceed 30% of the original substrate concentration.
# PDE3 (cGMP-inhibited) was investigated in homogenates of human platelets (see Schudt et al., Biochem Pharmacol 1991: 42, 153-162) using cAMP or cGMP as substrate.
# The IC50 values were determined from the concentration-inhibition curves by nonlinear regression.
# T1 sequence (Q14432 whole entry): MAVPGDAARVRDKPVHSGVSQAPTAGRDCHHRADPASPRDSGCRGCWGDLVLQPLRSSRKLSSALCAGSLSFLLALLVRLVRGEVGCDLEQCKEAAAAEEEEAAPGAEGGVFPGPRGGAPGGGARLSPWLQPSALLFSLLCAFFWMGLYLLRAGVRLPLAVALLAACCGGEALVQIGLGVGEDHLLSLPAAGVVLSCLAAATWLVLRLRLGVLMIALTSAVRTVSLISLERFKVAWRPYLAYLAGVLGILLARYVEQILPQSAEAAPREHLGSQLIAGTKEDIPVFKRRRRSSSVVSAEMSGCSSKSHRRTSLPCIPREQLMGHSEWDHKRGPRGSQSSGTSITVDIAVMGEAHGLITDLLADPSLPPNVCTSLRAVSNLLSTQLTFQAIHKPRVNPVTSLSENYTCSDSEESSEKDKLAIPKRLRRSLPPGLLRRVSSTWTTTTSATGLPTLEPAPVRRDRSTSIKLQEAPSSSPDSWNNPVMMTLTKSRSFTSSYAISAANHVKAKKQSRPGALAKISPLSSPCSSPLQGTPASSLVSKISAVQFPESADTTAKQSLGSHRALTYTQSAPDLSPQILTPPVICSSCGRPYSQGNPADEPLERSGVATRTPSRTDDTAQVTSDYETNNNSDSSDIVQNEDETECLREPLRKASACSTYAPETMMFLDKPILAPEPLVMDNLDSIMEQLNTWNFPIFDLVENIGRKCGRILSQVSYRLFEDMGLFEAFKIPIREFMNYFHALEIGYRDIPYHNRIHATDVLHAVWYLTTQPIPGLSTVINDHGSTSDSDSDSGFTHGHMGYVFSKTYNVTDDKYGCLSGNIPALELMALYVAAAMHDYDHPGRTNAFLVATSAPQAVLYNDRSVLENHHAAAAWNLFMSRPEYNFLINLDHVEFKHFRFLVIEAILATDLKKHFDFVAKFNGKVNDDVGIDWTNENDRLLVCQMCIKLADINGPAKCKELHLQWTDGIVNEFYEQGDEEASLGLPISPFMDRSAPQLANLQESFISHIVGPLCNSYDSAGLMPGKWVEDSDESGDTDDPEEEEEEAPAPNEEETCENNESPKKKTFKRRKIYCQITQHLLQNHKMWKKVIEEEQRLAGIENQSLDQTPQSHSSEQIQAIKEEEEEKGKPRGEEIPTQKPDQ
Structure (SMILES),IC50 (PDE3 (cGMP-inhibited)),melting point
"COc1ccc(C2=NN(C3CCN(C(C)=O)CC3)C(=O)CC2C)cc1OC (stereo not drawn) [Compound 4, 2-(1-Acetyl-piperidin-4-yl)-6-(3,4-dimethoxy-phenyl)-5-methyl-4,5-dihydro-2H-pyridazin-3-one]",1740 nM,149 to 152 °C
"COc1ccc(C2=NN(C3CCN(S(=O)(=O)c4cccc5c(N(C)C)cccc45)CC3)C(=O)CC2)cc1OC [Compound 9, 6-(3,4-Dimethoxy-phenyl)-2-[1-(5-dimethylamino-naphthalene-1-sulfonyl)-piperidin-4-yl]-4,5-dihydro-2-pyridazin-3-one]",245 nM,191 to 193 °C
"COc1ccc(C2=NN(C3CCN(CC(=O)N4CCOCC4)CC3)C(=O)CC2)cc1OC [Compound 10, 6-(3,4-Dimethoxy-phenyl)-2-[1-(2-morpholin4-yl-2-oxo-ethyl)-piperidin-4-yl]-4,5-dihydro-2-pyridazin-3-one hydrochloride]",4470 nM,–
"COc1ccc(C2=NN(C3CCN(S(=O)(=O)c4ccc(Cl)cc4)CC3)C(=O)CC2)cc1OC [Compound 13, 2-[1-(4-Chloro-benzenesulfonyl)-piperidin-4-yl]-6-(3,4-dimethoxy-phenyl)-4,5-dihydro-2H-pyridazin-3-one]",–,185 to 186 °C
"COc1ccc(C2=NN(C3CCN(C(=O)N4CCN(C)CC4)CC3)C(=O)CC2)cc1OC.Cl [Compound 8, 6-(3,4-Dimethoxy-phenyl)-2-{1-[1-(4-methyl-piperazin-1-yl)-methanoyl]-piperidin-4-yl}-4,5-dihydro-2H-pyridazin-3-one hydrochloride]",> 10000 nM,151 to 154 °C
"COc1ccc(C2=NN(C3CCN(Cc4cccnc4)CC3)C(=O)CC2C)cc1OC.Cl.Cl (stereo not drawn) [Compound 6, 6-(3,4-Dimethoxy-phenyl)-5-methyl-2-(1-pyridin-3-ylmethyl-piperidin-4-yl)-4,5-dihydro-2H-pyridazin-3-one dihydrochloride]",5890 nM,241 to 244 °C
"COc1ccc(C2=NN(C3CCN(CC(=O)N4CCOCC4)CC3)C(=O)CC2)cc1OC (as salt: hydrochloride) [Compound 10, 6-(3,4-Dimethoxy-phenyl)-2-[1-(2-morpholin4-yl-2-oxo-ethyl)-piperidin-4-yl]-4,5-dihydro-2-pyridazin-3-one hydrochloride]",–,145 to 148 °C
"COc1ccc(C2=NN(C3CCN(S(C)(=O)=O)CC3)C(=O)CC2)cc1OC [Compound 12, 6-(3,4-Dimethoxy-phenyl)-2-(1-methanesulfonyl-piperidin-4-yl)-4,5-dihydro-2H-pyridazin-3-one]",251 nM,164 to 166 °C
"COc1ccc(C2=NN(C3CCN(S(=O)(=O)Cc4ccccc4)CC3)C(=O)CC2)cc1OC [Compound 14, 6-(3,4-Dimethoxy-phenyl)-2-(1-phenylmethanesulfonyl-piperidin-4-yl)-4,5-dihydro-2H-pyridazin-3-one]",251 nM,114 °C
COc1ccc(C2=NN(C3CCN(C(=O)CN4CCN(c5ccccc5OC)CC4)CC3)C(=O)CC2)cc1OC.Cl.Cl,–,109 to 110 °C
COc1ccc(C2=NN(C3CCN(C(=O)N4CCOCC4)CC3)C(=O)CC2C)cc1OC (stereo not drawn) [Compound 5],1780 nM,137 to 138 °C
"COc1ccc(C2=NN(C3CCN(S(=O)(=O)c4ccc(C)cc4)CC3)C(=O)CC2)cc1OC [Compound 11, 6-(3,4-Dimethoxy-phenyl)-2-[1-(toluene-4-sulfonyl)-piperidin-4-yl]-4,5-dihydro-2H-pyridazin-3-one]",501 nM,179 to 184 °C
COc1ccc(C2=NN(C3CCNCC3)C(=O)CC2C)cc1OC.Cl (stereo not drawn),–,91 to 95 °C
CCN1CCN(C(=O)N2CCC(N3N=C(c4ccc(OC)c(OC)c4)CCC3=O)CC2)C(=O)C1=O [Compound 7],> 10000 nM,201 to 203 °C

# Further lines, results first:
IC50 (PDE3 (cGMP-inhibited)),melting point,Structure (SMILES)
–,162 to 164 °C,"COc1ccc(C2=NN(C3CCN(C(=O)c4cccnc4)CC3)C(=O)CC2)cc1OC [Compound 24, 6-(3,4-Dimethoxy-phenyl)-2-[1-(1-pyridin-3-yl-methanoyl)-piperidin-4-yl]-4,5-dihydro-2H-pyridazin-3-one]"
–,103 to 106 °C,"COc1ccc(C2=NN(C3CCN(S(=O)(=O)N(C)C)CC3)C(=O)CC2)cc1OC [Compound 22, 4-[3-(3,4-Dimethoxy-phenyl)-6-oxo-5,6-dihydro-4H-pyridazin-1-yl]-piperidine-1-sulfonic acid dimethylamide]"
158 nM,198 to 199 °C,"COc1ccc(C2=NN(C3CCN(S(=O)(=O)c4ccccc4F)CC3)C(=O)CC2)cc1OC [Compound 20, 6-(3,4-Dimethoxy-phenyl)-2-[1-(2-fluoro-benzenesulfonyl)-Piperidin-4-yl]-4,5-dihydro-2H-pyridazin-3-one]"
–,76 to 78 °C,"COc1ccc(C2=NN(C3CCN(C(=O)NC(C)(C)C)CC3)C(=O)CC2)cc1OC [Compound 26, 4-[3-(3,4-Dimethoxy-phenyl)-6-oxo-5,6-dihydro-4H-pyridazin-1-yl]-piperidine-1-carboxylic acid tert-butylamide]"
501 nM,197 to 198 °C,"COc1ccc(S(=O)(=O)N2CCC(N3N=C(c4ccc(OC)c(OC)c4)CCC3=O)CC2)cc1 [Compound 15, 6-(3,4-Dimethoxy-phenyl)-2-[1-(4-methoxy-benzenesulfonyl)-piperidin-4-yl]-4,5-dihydro-2H-pyridazin-3-one]"
> 10000 nM,121 to 122 °C,"COc1ccc(C2=NN(C3CCN(CC(=O)N(C)C)CC3)C(=O)CC2)cc1OC.Cl [Compound 27, 2-{4-[3-(3,4-Dimethoxy-phenyl)-6-oxo-5,6-dihydro-4H-pyridazin-1-yl]-piperidin-1-yl}-N,N-dimethylacetamide hydrochloride]"
100 nM,118 to 119 °C,"COc1ccc(C2=NN(C3CCN(S(=O)(=O)c4ccccc4OC(F)(F)F)CC3)C(=O)CC2)cc1OC [Compound 21, 6-(3,4-Dimethoxy-phenyl)-2-[1-(2-trifluoromethoxy-benzenesulfonyl)-piperidin-4-yl]-4,5-dihydro-2H-pyridazin-3-one]"
79.4 nM,158 to 160 °C,"COc1ccc(C2=NN(C3CCN(S(=O)(=O)c4ccccc4C#N)CC3)C(=O)CC2)cc1OC [Compound 18, 2-{4-[3-(3,4-Dimethoxy-phenyl)-6-oxo-5,6-dihydro-4H-pyridazin-1-yl]-piperidine-1-sulfonyl}-benzonitrile]"
